These results are taken from patent publication US8618138B2, “Indole amide derivatives and related compounds for use in the treatment of neurodegenerative diseases” (Katholieke Universiteit Leuven, K.U. Leuven R&D, priority 2009, dated 2013).

The subject of the experiment is M17-TAU P301L cells. Description: TAU cytotoxicity assay: LDH leakage of retinoic acid incubated M17-TAU P301L cells. It counts as cell-based, human. The note with it: Homo sapiens, 168 h, reduction of LDH activity of retinoic acid incubated M17-TAU P301L cells, 7 days. The essentials:
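M17 neuroblastoma cells stably expressing human TAU P301L, seeded at 2500 cells/cm2 in Optimem with 1% FCS, then given 2.5 μM retinoic acid (stock before 1:1 addition) and grown 7 days at 37 °C. Cytotoxicity read as LDH leaked into medium; EC50 derived from these measurements.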
`O=C(NCCc1c[nH]c2ncc(Cl)cc12)c1cc(Cc2cc(F)ccc2F)on1` [Example D128, N-(2-(5-chloro-1H-pyrrolo[2,3-b]pyridin-3-yl)ethyl)-5-(2,5-difluorobenzyl)isoxazole-3-carboxamide]: the EC50 stood at 105 nM.
In the case of `O=C(NCCc1c[nH]c2ccc(Cl)cc12)c1cc(Cc2ccc(F)c(F)c2)on1` [Example D129, N-(2-(5-chloro-1H-indol-3-yl)ethyl)-5-(3,4-difluorobenzyl)isoxazole-3-carboxamide] it was 8 nM; in that of `O=C(NCCc1c[nH]c2ccc(Cl)cc12)c1cc(Cc2cccc(F)c2F)on1` [Example D130, N-(2-(5-chloro-1H-indol-3-yl)ethyl)-5-(2,3-difluorobenzyl)isoxazole-3-carboxamide], 20 nM; in that of `O=C(NCCc1c[nH]c2ccc(Cl)cc12)c1cc(Cc2cc(F)cc(F)c2)on1` [Example D131, N-(2-(5-chloro-1H-indol-3-yl)ethyl)-5-(3,5-difluorobenzyl)isoxazole-3-carboxamide], 13 nM.
`O=C(NCCc1c[nH]c2ccc(Cl)cc12)C1CCN(c2ccc(C(F)(F)F)cc2)C1=O` (centres unmarked) [Example D132, N-(2-(5-chloro-1H-indol-3-yl)ethyl)-2-oxo-1-(4-(trifluoromethyl)phenyl)pyrrolidine-3-carboxamide]: the EC50 is 57 nM.
The value for `Cc1ccc(N2CCC(C(=O)NCCc3c[nH]c4ccc(Cl)cc34)C2=O)cc1` (centres unmarked) [Example D133, N-(2-(5-chloro-1H-indol-3-yl)ethyl)-2-oxo-1-p-tolylpyrrolidine-3-carboxamide] was 46 nM; that for `CC(=O)c1ccc(N2CCC(C(=O)NCCc3c[nH]c4ccc(Cl)cc34)C2=O)cc1` (centres unmarked) [Example D134, 1-(4-acetylphenyl)-N-(2-(5-chloro-1H-indol-3-yl)ethyl)-2-oxopyrrolidine-3-carboxamide] was 86 nM.
In the case of `O=C(NCCc1c[nH]c2ccc(C(F)(F)F)cc12)c1cc(Cc2cc(F)ccc2F)on1` [Example D135, 5-(2,5-difluorobenzyl)-N-(2-(5-(trifluoromethyl)-1H-indol-3-yl)ethyl)isoxazole-3-carboxamide] it was 144 nM; in that of `Cc1cc2c(CCNC(=O)c3cc(Cc4cc(F)ccc4F)on3)c[nH]c2cc1Cl` [Example D136, N-(2-(6-chloro-5-methyl-1H-indol-3-yl)ethyl)-5-(2,5-difluorobenzyl)isoxazole-3-carboxamide], 741 nM; in that of `N#Cc1ccc2[nH]cc(CCNC(=O)c3cc(Cc4cc(F)ccc4F)on3)c2c1` [Example D137, N-(2-(5-cyano-1H-indol-3-yl)ethyl)-5-(2,5-difluorobenzyl)isoxazole-3-carboxamide], 32 nM.
The molecule `O=C(c1cc(Cc2cc(F)ccc2F)on1)N1CCC(c2c[nH]c3ccccc23)CC1` [Example D138, (4-(1H-indol-3-yl)piperidin-1-yl)(5-(2,5-difluorobenzyl)isoxazol-3-yl)methanone] came in with an EC50 of 418 nM.
For `O=C(c1cc(Cc2cc(F)ccc2F)on1)N1CCC(c2c[nH]c3ccc(Cl)cc23)CC1` [Example D139, (4-(5-chloro-1H-indol-3-yl)piperidin-1-yl)(5-(2,5-difluorobenzyl)isoxazol-3-yl)methanone], the EC50 was 186 nM.
Turning to `O=C(NCCc1c[nH]c2ccc(-c3ccccc3)cc12)c1cc(Cc2cc(F)ccc2F)on1` [Example D140, 5-(2,5-difluorobenzyl)-N-(2-(5-phenyl-1H-indol-3-yl)ethyl)isoxazole-3-carboxamide], the midpoint of the response, the EC50, lay at 316 nM.
The value for `O=C(NCCc1c[nH]c2c(F)cc(Cl)cc12)c1cc(Cc2cc(F)ccc2F)on1` [Example D141, N-(2-(5-chloro-7-fluoro-1H-indol-3-yl)ethyl)-5-(2,5-difluorobenzyl)isoxazole-3-carboxamide] was 233 nM.
With `O=C(NCCc1c[nH]c2ccc(Cl)cc12)C1CCN(c2ccc(Cl)c(F)c2)C1=O` (centres unmarked) [Example D142, N-(2-(5-chloro-1H-indol-3-yl)ethyl)-1-(4-chloro-3-fluorophenyl)-2-oxopyrrolidine-3-carboxamide], the EC50 amounted to 561 nM.
The value for `Cc1ccc(N2CCC(C(=O)NCCc3c[nH]c4ccc(Cl)cc34)C2=O)cc1C` (centres unmarked) [Example D143, N-(2-(5-chloro-1H-indol-3-yl)ethyl)-1-(3,4-dimethylphenyl)-2-oxopyrrolidine-3-carboxamide] was 1020 nM; that for `O=C(NCCc1c[nH]c2ccc(Cl)cc12)C1CCN(c2ccc3c(c2)CCC3)C1=O` (centres unmarked) [Example D145, N-(2-(5-chloro-1H-indol-3-yl)ethyl)-1-(2,3-dihydro-1H-inden-5-yl)-2-oxopyrrolidine-3-carboxamide] was 137 nM; that for `O=C(NCCc1c[nH]c2ccc(Cl)cc12)C1CCN(c2ccc3c(c2)COC3)C1=O` (centres unmarked) [Example D146, N-(2-(5-chloro-1H-indol-3-yl)ethyl)-1-(1,3-dihydroisobenzofuran-5-yl)-2-oxopyrrolidine-3-carboxamide] was 1160 nM.
In the case of `COc1ccc(N2CCC(C(=O)NCCc3c[nH]c4ccc(Cl)cc34)C2=O)cc1F` (centres unmarked) [Example D147, N-(2-(5-chloro-1H-indol-3-yl)ethyl)-1-(3-fluoro-4-methoxyphenyl)-2-oxopyrrolidine-3-carboxamide] it was 379 nM; in that of `O=C(NCCc1c[nH]c2ccc(Cl)cc12)C1CCN(c2ccc(F)c(F)c2)C1=O` (centres unmarked) [Example D148, N-(2-(5-chloro-1H-indol-3-yl)ethyl)-1-(3,4-difluorophenyl)-2-oxopyrrolidine-3-carboxamide], 691 nM.
Turning to `O=C(NCCc1c[nH]c2ccc(Cl)cc12)C1CCN(C2CC2)C1=O` (centres unmarked) [Example D149, N-(2-(5-chloro-1H-indol-3-yl)ethyl)-1-cyclopropyl-2-oxopyrrolidine-3-carboxamide], the response was half-maximal at 2090 nM (EC50).
In the case of `O=C(NCCc1c[nH]c2ccc(Cl)cc12)C1CCN(c2ccc(C(F)(F)F)c(F)c2)C1=O` (centres unmarked) [Example D150, N-(2-(5-chloro-1H-indol-3-yl)ethyl)-1-(3-fluoro-4-(trifluoromethyl)phenyl)-2-oxopyrrolidine-3-carboxamide] it was 23300 nM.
The value for `O=C(NCCc1c[nH]c2ccc(Cl)cc12)C1CCN(c2c(F)cccc2F)C1=O` (centres unmarked) [Example D151, N-(2-(5-chloro-1H-indol-3-yl)ethyl)-1-(2,6-difluorophenyl)-2-oxopyrrolidine-3-carboxamide] was 561 nM; that for `Cc1ccc(N2CCC(C(=O)NCCc3c[nH]c4ccc(Cl)cc34)C2=O)cc1F` (centres unmarked) [Example D152, N-(2-(5-chloro-1H-indol-3-yl)ethyl)-1-(3-fluoro-4-methylphenyl)-2-oxopyrrolidine-3-carboxamide] was 99 nM.
The value for `O=C(NCCc1c[nH]c2ccc(Cl)cc12)C1CCN(c2ccc(Cl)cc2)C1=O` (centres unmarked) [Example D153, N-(2-(5-chloro-1H-indol-3-yl)ethyl)-1-(4-chlorophenyl)-2-oxopyrrolidine-3-carboxamide] was 365 nM.
Molecule `O=C(NCCc1c[nH]c2ccc(Cl)cc12)C1CCN(c2cccc(-n3cccc3)c2)C1=O` (centres unmarked) [Example D155, 1-(3-(1H-pyrrol-1-yl)phenyl)-N-(2-(5-chloro-1H-indol-3-yl)ethyl)-2-oxopyrrolidine-3-carboxamide] gave an EC50 of 1370 nM.
